From patent US8686024B2, “Indoline derivatives” (priority 2009, dated 2014)
Entries after “also recorded” stand apart in the source; their conditions may differ. Like-named read-outs stand apart in the source and are kept apart here.

Experiments:
[1] = target: T1, butyrylcholine esterase (BuChE) (Mus musculus, UniProt Q03311); assay: In vitro assay for choline esterase inhibition (Ellman method), butyrylthiocholine substrate, mouse serum; assay type: biochemical; conditions: for Ratio AChE/BuChE: selectivity for BuChE inhibition: IC50 (AchE)/IC50 (BuChE)
T1 construct: brain homogenate and serum of mouse were used as choline esterase enzyme sources; from tissue; host or cells: mouse serum
T1 sequence (Q03311 30-603): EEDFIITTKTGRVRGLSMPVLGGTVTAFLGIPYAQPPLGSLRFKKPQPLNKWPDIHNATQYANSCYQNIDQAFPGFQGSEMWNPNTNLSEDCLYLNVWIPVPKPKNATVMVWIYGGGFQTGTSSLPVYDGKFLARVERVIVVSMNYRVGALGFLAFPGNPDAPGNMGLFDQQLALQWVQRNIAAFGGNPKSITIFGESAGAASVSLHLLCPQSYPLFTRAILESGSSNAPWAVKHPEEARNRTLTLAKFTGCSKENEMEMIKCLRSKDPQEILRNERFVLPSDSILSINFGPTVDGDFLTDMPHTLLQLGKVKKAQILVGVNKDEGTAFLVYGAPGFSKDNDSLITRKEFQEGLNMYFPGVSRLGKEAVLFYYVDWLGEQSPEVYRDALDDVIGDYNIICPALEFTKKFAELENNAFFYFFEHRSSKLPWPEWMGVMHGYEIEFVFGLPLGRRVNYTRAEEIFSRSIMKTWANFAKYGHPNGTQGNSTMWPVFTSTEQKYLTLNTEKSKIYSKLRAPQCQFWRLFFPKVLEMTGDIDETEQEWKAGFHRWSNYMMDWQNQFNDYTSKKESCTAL
Description: (§1) For measurement of esterase activity, brain homogenate and serum of mouse were used as choline esterase enzyme sources, and the method of Ellman et. al (Biochemical pharmacology 7: 88-95 1961) were referred. Compound of each example were diluted in dimethylsulfoxide.
(§2) In detail, acetylthiocholine or butyrylthiocholine as substrates, test compounds, and DNTB [[…]] were added to the mouse brain homogenate or serum, respectively.
(§3) After incubation, thiocholine was produced by enzyme reaction in the mixture, and then, the yellow product was formed by the reaction of thiocholine and DTNB. The activity of acetylcholine esterase (AChE) or butyrylcholine esterase (BuChE) was evaluated by determination of absorbance at 415 nm. […] And the selectivity for BuChE inhibition of each compound was calculated by the ratio: IC50 (AchE)/IC50 (BuChE).

[2] = target: T2, acetylcholine esterase (AChE) (Mus musculus, UniProt P21836); assay: In vitro assay for choline esterase inhibition (Ellman method), acetylthiocholine substrate, mouse brain homogenate; assay type: biochemical
T2 construct: brain homogenate and serum of mouse were used as choline esterase enzyme sources; from tissue; host or cells: mouse brain homogenate
T2 sequence (P21836 32-614): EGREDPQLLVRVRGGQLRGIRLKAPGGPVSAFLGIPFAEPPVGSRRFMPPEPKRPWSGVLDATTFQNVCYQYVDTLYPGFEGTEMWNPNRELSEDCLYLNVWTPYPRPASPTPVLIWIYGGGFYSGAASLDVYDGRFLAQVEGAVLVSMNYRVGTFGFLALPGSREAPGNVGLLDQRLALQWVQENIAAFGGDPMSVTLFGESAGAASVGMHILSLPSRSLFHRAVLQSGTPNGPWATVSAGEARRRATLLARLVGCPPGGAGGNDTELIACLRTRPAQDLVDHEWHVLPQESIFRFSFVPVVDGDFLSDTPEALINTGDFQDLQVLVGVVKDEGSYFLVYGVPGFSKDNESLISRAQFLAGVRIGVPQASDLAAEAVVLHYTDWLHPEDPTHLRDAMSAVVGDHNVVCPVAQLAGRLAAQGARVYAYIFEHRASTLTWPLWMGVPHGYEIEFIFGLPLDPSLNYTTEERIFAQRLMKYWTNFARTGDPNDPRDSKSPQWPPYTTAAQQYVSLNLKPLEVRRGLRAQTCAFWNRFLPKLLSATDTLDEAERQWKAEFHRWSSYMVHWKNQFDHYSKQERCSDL
Description: as §1, §2, §3

[3] = mouse serum, butyrylthiocholine, absorbance at 415 nm, read-out: BuChE inhibitory activity IC50
[4] = mouse brain homogenate, acetylthiocholine, absorbance at 415 nm, read-out: AChE inhibitory activity IC50

| SMILES | IC50 [1] [nM] | Ratio AChE/BuChE [1] | selectivity to butyrylcholinesterase (BuChE versus AChE inhibitory activity), in words ([1]; summary of Tables 1-3) | IC50 [2] [nM] | IC50 [1, 3] [nM] | IC50 [2, 4] [nM] | butyrylcholinesterase inhibitory activity, in words ([1]; summary of Tables 1-3) |
| --- | --- | --- | --- | --- | --- | --- | --- |
| CN(CC1CCOCC1)C(=O)Oc1ccc2c(c1)C(C)(C)CN2Cc1ccncc1 [Example 220, N-methyl-O-[1-(4-pyridylmethyl)-3,3-dimethylindolin-5-yl]-N-(4-tetrahydropyranylmethyl)carbamate] | 1.9 | 11000 | much higher | 21000 | – | – | – |
| COc1ccc(CCNC(=O)Oc2ccc3c(c2)CCN3Cc2ccccc2)cc1 [Example 32, 1-benzylindolin-5-yl 4-methoxyphenethylcarbamate] | 160 | >630 | – | > 100000 | – | – | – |
| CC(C)c1ccc(NC(=O)Oc2ccc3c(c2)CCN3Cc2cccc(O)c2)cc1 [Example 62, 1-(3-hydroxybenzyl)indolin-5-yl 4-isopropylphenylcarbamate] | 450 | >220 | – | > 100000 | – | – | – |
| CN(CC1CCCCC1)C(=O)Oc1ccc2c(c1)C(C)(C)CN2Cc1ccccc1 [Example 216, O-(1-benzyl-3,3-dimethylindolin-5-yl)-N-(cyclohexylmethyl)-N-methylcarbamate] | 2.4 | 23000 | much higher | 54000 | – | – | – |
| CC(C)c1ccc(CCNC(=O)Oc2ccc3c(c2)CCN3Cc2ccccc2)cc1 [Example 33, 1-benzylindolin-5-yl 4-isopropylphenethylcarbamate] | 350 | >290 | – | > 100000 | – | – | – |
| Cc1ccccc1CCNC(=O)Oc1ccc2c(c1)CCN2Cc1ccccc1 [Example 115, 1-benzylindolin-5-yl 2-methylphenethylcarbamate] | – | 1200 | much higher | – | 10 | 12000 | – |
| O=C(NCc1ccccc1)Oc1ccc2c(c1)CCN2Cc1ccccn1 [Example 150, 1-(2-pyridylmethyl)indolin-5-yl benzylcarbamate] | – | 11 | – | – | 10 | 110 | – |
| O=C(NC1CCCCCCC1)Oc1ccc2c(c1)CCN2Cc1ccccc1 [Example 45, 1-benzylindolin-5-yl cyclooctylcarbamate] | 21 | >4800 | much higher | > 100000 | – | – | – |
| O=C(NCC1CCCCC1)Oc1ccc2c(c1)CCN2Cc1ccccc1 [Example 34, 1-benzylindolin-5-yl cyclohexylmethylcarbamate] | 3 | >33000 | much higher | > 100000 | – | – | – |
| COc1cccc(CNC(=O)Oc2ccc3c(c2)CCN3Cc2ccccc2)c1 [Example 100, 1-benzylindolin-5-yl 3-methoxybenzylcarbamate] | – | 220 | much higher | – | 7.3 | 1600 | – |
| CN(C)C(=O)Oc1ccc2c(c1)CCN2Cc1ccccc1 [Example 221, N,N-dimethyl-O-(1-benzylindolin-5-yl)carbamate] | 170 | 76 | – | 13000 | – | – | – |
| CC(C)c1ccc(NC(=O)Oc2ccc3c(c2)CCN3Cc2ccccc2O)cc1 [Example 66, 1-(2-hydroxybenzyl)indolin-5-yl 4-isopropylphenylcarbamate] | 570 | >180 | – | > 100000 | – | – | – |
| CC(C)c1ccc(NC(=O)Oc2ccc3c(c2)CCN3Cc2ccncc2)cc1 [Example 27, 1-(4-pyridylmethyl)indolin-5-yl 4-isopropylphenylcarbamate] | 1100 | >91 | – | > 100000 | – | – | – |
| CCNC(=O)Oc1ccc2c(c1)CCN2Cc1ccccc1 [Example 57, 1-benzylindolin-5-yl ethylcarbamate] | – | 2000 | much higher | – | 34 | 69000 | – |
| CN(C)CCCNC(=O)Oc1ccc2c(c1)CCN2Cc1ccccc1 [Example 137, 1-benzylindolin-5-yl 3-(dimethylamino)propylcarbamate] | 180 | >560 | – | > 100000 | – | – | – |
| Cc1ccc(CCNC(=O)Oc2ccc3c(c2)CCN3Cc2ccccc2)cc1 [Example 91, 1-benzylindolin-5-yl-4-methylphenethylcarbamate] | – | >1700 | much higher | – | 59 | > 100000 | – |
| O=C(NCc1ccccn1)Oc1ccc2c(c1)CCN2Cc1ccccc1 [Example 102, 1-benzylindolin-5-yl 2-pyridylmethylcarbamate] | – | 77 | – | – | 130 | 10000 | – |
| CC(C)(C)CNC(=O)Oc1ccc2c(c1)CCN2Cc1ccccc1 [Example 153, 1-benzylindolin-5-yl 2,2-dimethylpropylcarbamate] | 91 | >1100 | much higher | > 100000 | – | – | – |
| CN(CC1CCOCC1)C(=O)Oc1ccc2c(c1)C(C)(C)CN2Cc1ccccc1 [Example 217, O-(1-benzyl-3,3-dimethylindolin-5-yl)-N-methyl-N-(4-tetrahydropyranylmethyl)carbamate] | 0.36 | 260000 | much higher; also recorded: highest selectivity to butyrylcholinesterase | 93000 | – | – | highest butyrylcholinesterase inhibitory activity |
| O=C(Nc1ccc2c(c1)CCC2)Oc1ccc2c(c1)CCN2Cc1ccccc1 [Example 85, 1-benzylindolin-5-yl 5-indanylcarbamate] | 420 | >240 | – | > 100000 | – | – | – |
| CC(=O)NCCC1CN(Cc2ccccc2)c2ccc(OC(=O)Nc3ccc(C(C)C)cc3)cc21 (stereo not drawn) [Example 160, 3-(2-acetamidethyl)-1-benzylindolin-5-yl-4-isopropylphenylcarbamate] | 550 | >180 | – | > 100000 | – | – | – |
| COc1ccc(NC(=O)Oc2ccc3c(c2)CCN3Cc2ccccc2)cc1 [Example 9, 1-benzylindolin-5-yl 4-methoxyphenylcarbamate] | 98 | >1000 | much higher | > 100000 | – | – | – |
| CC(C)CNC(=O)Oc1ccc2c(c1)CCN2Cc1ccccc1 [Example 35, 1-benzylindolin-5-yl 2-methylpropylcarbamate] | – | 5800 | much higher | – | 8 | 46000 | – |
| O=C(NCc1ccco1)Oc1ccc2c(c1)CCN2Cc1ccccc1 [Example 18, 1-benzylindolin-5-yl furfurylcarbamate] | – | 47 | – | – | 38 | 1800 | – |
| COc1ccccc1CCNC(=O)Oc1ccc2c(c1)CCN2Cc1ccccc1 [Example 117, 1-benzylindolin-5-yl 2-methoxyphenethylcarbamate] | – | 330 | much higher | – | 24 | 7900 | – |
| CC(C)c1ccc(NC(=O)Oc2ccc3c(c2)C(C)(C)CN3Cc2ccccc2)cc1 [Example 145, 1-benzyl-3,3-dimethylindolin-5-yl-4-isopropylphenylcarbamate] | – | >360 | – | – | 280 | > 100000 | – |
| CCCCCC(C)NC(=O)Oc1ccc2c(c1)CCN2Cc1ccccc1 (stereo not drawn) [Example 50, 1-benzylindolin-5-yl 2-heptylcarbamate] | 53 | >1900 | much higher | > 100000 | – | – | – |
| COc1ccc(NC(=O)Oc2ccc3c(c2)CCN3Cc2ccccc2)cc1OC [Example 140, 1-benzylindolin-5-yl 3,4-dimethoxyphenylcarbamate] | 110 | >910 | – | > 100000 | – | – | – |
| Cc1ccc(NC(=O)Oc2ccc3c(c2)CCN3Cc2ccccc2)cc1C [Example 113, 1-benzylindolin-5-yl 3,4-dimethylphenylcarbamate] | 160 | >630 | – | > 100000 | – | – | – |
